# Data as given in patent US6566074B1, “Methods of modulating cell attachment and migration” (The General Hospital Corporation, priority 1999, dated 2003).
# System: FN−/−fibroblasts
# Type: cell-based, mouse
# Details: Rho experiment: substrate 120 kDa CBD of fibronectin; substance added as supplement (Figs 5B-5D)
substance,measurement,value
Lysophosphatidic acid [LPA],% of attached cells that assemble focal adhesions and actin stress fibers (spread morphology),95%
